Measured values: patent US20230320999A1, “NON-THERAPEUTIC METHODS FOR ALLEVIATING OR REDUCING STRESS SYMPTOMS OF RUMINANTS” (DSM IP Assets B.V., priority 2018, published 2023)

Test system: rumen metabolites (Dimethylsulfone)
Test: Rumen metabolites in rumen fluid of fistulated steers, quantified by NMR after 21 days of treatment
Type: in vivo, Brahman steers (Bos indicus)
Settings: for Dimethylsulfone in rumen fluid: rumen fluid 3 h post feeding, days 20 and 21, 4 steers; for Change of the methyl donor (dimethylsulfone) in rumen fluid versus control period, in words: 21 days of treatment, Brahman steers
Excerpt: Eight fistulated Brahman steers (Bos indicus) were randomly allocated to two groups (4 animals per group) and received a forage ad libitum diet (Rhode grass hay (Chloris […]), chemical composition: DM, 917 g/kg fresh matter; in g/kg of DM: OM, 806; CP, 169; NDF, 661; ADF, 359; ADL, 46; ash, 116 and GE 17.38 MJ/kg). […] Animals were adapted to the diet over a 21 d period. After that initial period, experimental animals were placed into individual pens in an animal house for the measurement of intakes (10 d) and were treated with cyclodextrin (2 g/100 kg LW) and molasses (60 mL/d). On the last 2 days animals were placed into open-circuit respiration chambers for collection of rumen samples. […] On days 20 and 21 of treatment both groups were placed in open-circuit respiration chambers for rumen fluid collection. Rumen fluid samples (approx. 60 mL per animal) were collected using a probe with 2 layers of cheesecloth through the cannula of the animal at 3 h post feeding, during confinement in respiration chambers to determine rumen metabolites.

| SMILES | Dimethylsulfone in rumen fluid (2.5 g propanediol mononitrate/animal/day for 21 days, control period value 20) | Change of the methyl donor (dimethylsulfone) in rumen fluid versus control period, in words | Dimethylsulfone in rumen fluid (1.6 g chloroform-CD/100 kg LW for 21 days, control period value 21) |
| --- | --- | --- | --- |
| O=[N+]([O-])OCCCO [PDMN, 1,3-propanediol mononitrate] | 113 μmol/L rumen fluid | statistically significant increase |  |
| ClC(Cl)Cl [Chloroform, chloroform] |  | statistically significant increase | 80 μmol/L rumen fluid |
